Measurements published in patent US9302999B2, “Substituted triazoles as herbicides” (E. I. DU PONT DE NEMOURS AND COMPANY, priority 2012, dated 2016).

Columns and labels:
Format in all cases: in vivo
[1] = system: blackgrass (Alopecurus myosuroides); experiment: Test D pre-/postemergence: blackgrass; conditions: Postemergence; for Plant response rating, Blackgrass: scale 0 to 100
Outline: (§1)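 Scores run from 0 (no effect) to 100 (complete control), assigned by visual comparison with controls after 14 to 21 days in a controlled environment. Both preemergence application to silt loam and postemergence application to 1- to 4-leaf plants were tested.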

[2] = system: barley, spring (spring barley, Hordeum vulgare); experiment: Test D pre-/postemergence: barley, spring; conditions: Postemergence; for Plant response rating, Barley, Spring: scale 0 to 100
Outline: as §1

[3] = system: Russian thistle (Salsola iberica); experiment: Test D pre-/postemergence: Russian thistle; conditions: Postemergence; for Plant response rating, Russian Thistle: scale 0 to 100
Outline: as §1

[4] = system: sedge, umbrella (small-flower umbrella sedge Cyperus difformis); experiment: Test B flooded paddy: sedge, umbrella; conditions: Flood, applied to paddy water at 2-leaf stage, visually evaluated after 13 to 15 days
Outline: (§2)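 Greenhouse assay lasting 13 to 15 days. Treatment was into water flooding pots 3 cm deep, at the 2-leaf stage, with that level sustained afterwards. Scores compare treated with control plants visually, 100 denoting complete control and 0 no effect; a dash marks no test result.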

[5] = system: foxtail, green (green foxtail, Setaria viridis); experiment: Test C pre-/postemergence: foxtail, green
Outline: (§3)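 Visual injury scored 0–100 (100 = complete control) against untreated controls after 13–15 greenhouse days. Surfactant-containing solvent formulations applied either to soil after sowing (loam/sand) or over 1- to 4-leaf plants, 2–18 cm tall.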

[6] = system: ducksalad (Heteranthera limosa); experiment: Test B flooded paddy: ducksalad; conditions: Flood, applied to paddy water at 2-leaf stage, visually evaluated after 13 to 15 days
Outline: as §2

[7] = system: field poppy (Papaver rhoeas); experiment: Test D pre-/postemergence: field poppy; conditions: Postemergence; for Plant response rating, Field Poppy: scale 0 to 100
Outline: as §1

[8] = system: deadnettle (henbit deadnettle, Lamium amplexicaule); experiment: Test D pre-/postemergence: deadnettle; conditions: Postemergence; for Plant response rating, Deadnettle: scale 0 to 100
Outline: as §1

[9] = system: woolly cupgrass (Eriochloa villosa); experiment: Test C pre-/postemergence: woolly cupgrass
Outline: as §3

[10] = 31 g ai/ha, scale 0 to 100 (0 no effect, 100 complete control)
[11] = 62 g ai/ha, scale 0 to 100 (0 no effect, 100 complete control)
[12] = 125 g ai/ha, scale 0 to 100, 0 no effect, 100 complete control
[13] = 250 g ai/ha, scale 0 to 100 (0 no effect, 100 complete control)
[14] = Postemergence, 31 g ai/ha, scale 0 to 100 (0 no effect, 100 complete control)
[15] = Postemergence, 62 g ai/ha, scale 0 to 100 (0 no effect, 100 complete control)
[16] = Postemergence, 125 g ai/ha, scale 0 to 100, 0 no effect, 100 complete control
[17] = Postemergence, 250 g ai/ha, scale 0 to 100
[18] = Preemergence, 31 g ai/ha, scale of 0 to 100, 0 is no effect, 100 is complete control
[19] = Preemergence, 62 g ai/ha, scale of 0 to 100, 0 is no effect, 100 is complete control
[20] = Preemergence, 125 g ai/ha, scale 0 to 100, 0 no effect, 100 complete control
[21] = Preemergence, 250 g ai/ha, scale 0 to 100, 0 no effect, 100 complete control

## Cc1nn(-c2ccnc(C(F)(F)F)c2)nc1Cc1ccnc(C(F)(F)F)c1 [Compound 137]
[1]; [10]
  Plant response rating: Blackgrass: 30
[1]; [11]
  Plant response rating: Blackgrass: 50
[1]; [12]
  Plant response rating: Blackgrass: 70
[1]; [13]
  Plant response rating: Blackgrass: 80
[1]; 16 g ai/ha
  Plant response rating, Blackgrass: 10
[2]; [10]
  Plant response rating: Barley, Spring: 15
[2]; [11]
  Plant response rating: Barley, Spring: 25
[2]; [12]
  Plant response rating: Barley, Spring: 30
[2]; [13]
  Plant response rating: Barley, Spring: 40
[2]; 16 g ai/ha
  Plant response rating, Barley, Spring: 10
[3]; [11]
  Plant response rating: Russian Thistle: 85
[3]; [12]
  Plant response rating: Russian Thistle: 85
[3]; [13]
  Plant response rating: Russian Thistle: 90
[3]; 16 g ai/ha
  Plant response rating, Russian Thistle: 30
[4]; 250 g ai/ha
  Plant response rating, Sedge, Umbrella (0 to 100 scale, 0 is no effect, 100 is complete control): 70
[5]; [14]
  Plant response rating, Foxtail, Green: 80
[5]; [15]
  Plant response rating, Foxtail, Green: 85
[5]; [16]
  Plant response rating, Foxtail, Green: 95
[5]; [17]
  Plant response rating, Foxtail, Green: 95
[6]; 250 g ai/ha
  Plant response rating, Ducksalad (0 to 100 scale, 0 is no effect, 100 is complete control): 50
[7]; [10]
  Plant response rating: Field Poppy: 40
[7]; [11]
  Plant response rating: Field Poppy: 100
[7]; [12]
  Plant response rating: Field Poppy: 100
[7]; [13]
  Plant response rating: Field Poppy: 100
[7]; 16 g ai/ha
  Plant response rating, Field Poppy: 30
[8]; [10]
  Plant response rating: Deadnettle: 40
[8]; [11]
  Plant response rating: Deadnettle: 70
[8]; [12]
  Plant response rating: Deadnettle: 80
[8]; [13]
  Plant response rating: Deadnettle: 85
[8]; 16 g ai/ha
  Plant response rating, Deadnettle: 20
[9]; [14]
  Plant response rating, Cupgrass, Woolly: 45
[9]; [15]
  Plant response rating, Cupgrass, Woolly: 50
[9]; [16]
  Plant response rating, Cupgrass, Woolly: 55
[9]; [17]
  Plant response rating, Cupgrass, Woolly: 90

## Fc1ccc(-n2nc(Cc3ccnc(C(F)(F)F)c3)c(OCC(F)(F)F)n2)cc1 [Compound 142]
[4]; 250 g ai/ha
  Plant response rating, Sedge, Umbrella (0 to 100 scale, 0 is no effect, 100 is complete control): 90
[5]; [14]
  Plant response rating, Foxtail, Green: 100
[5]; [15]
  Plant response rating, Foxtail, Green: 100
[5]; [16]
  Plant response rating, Foxtail, Green: 100
[5]; [17]
  Plant response rating, Foxtail, Green: 100
[5]; [18]
  Plant response rating, Foxtail, Green: 90
[5]; [19]
  Plant response rating, Foxtail, Green: 90
[5]; [20]
  Plant response rating, Foxtail, Green: 90
[5]; [21]
  Plant response rating, Foxtail, Green: 90
[6]; 250 g ai/ha
  Plant response rating, Ducksalad (0 to 100 scale, 0 is no effect, 100 is complete control): 90
[9]; [14]
  Plant response rating, Cupgrass, Woolly: 40
[9]; [15]
  Plant response rating, Cupgrass, Woolly: 40
[9]; [16]
  Plant response rating, Cupgrass, Woolly: 75
[9]; [17]
  Plant response rating, Cupgrass, Woolly: 85
[9]; [18]
  Plant response rating, Cupgrass, Woolly: 55
[9]; [19]
  Plant response rating, Cupgrass, Woolly: 70
[9]; [20]
  Plant response rating, Cupgrass, Woolly: 95
[9]; [21]
  Plant response rating, Cupgrass, Woolly: 98

## Cc1nn(-c2ccc(C(F)(F)F)c(F)c2)nc1Cc1ccnc(C(F)(F)F)c1 [Compound 162]
[4]; 125 g ai/ha
  Plant response rating, Sedge, Umbrella (0 to 100 scale, 0 is no effect, 100 is complete control): 80
[6]; 125 g ai/ha
  Plant response rating, Ducksalad (0 to 100 scale, 0 is no effect, 100 is complete control): 0

## CCOc1nn(-c2ccc(Br)cc2)nc1Cc1ccnc(C(F)(F)F)c1 [Compound 189]
[4]; 125 g ai/ha
  Plant response rating, Sedge, Umbrella (0 to 100 scale, 0 is no effect, 100 is complete control): 0
[6]; 125 g ai/ha
  Plant response rating, Ducksalad (0 to 100 scale, 0 is no effect, 100 is complete control): 20

## CCc1nn(-c2ccc(F)cc2)nc1Oc1ccnc(C(F)(F)F)c1 [Compound 166]
[4]; 125 g ai/ha
  Plant response rating, Sedge, Umbrella (0 to 100 scale, 0 is no effect, 100 is complete control): 70
[6]; 125 g ai/ha
  Plant response rating, Ducksalad (0 to 100 scale, 0 is no effect, 100 is complete control): 70

## CCCc1nn(-c2ccc(C(F)(F)F)c(F)c2)nc1Oc1ccnc(C(F)(F)F)c1 [Compound 185]
[4]; 250 g ai/ha
  Plant response rating, Sedge, Umbrella (0 to 100 scale, 0 is no effect, 100 is complete control): 95
[6]; 250 g ai/ha
  Plant response rating, Ducksalad (0 to 100 scale, 0 is no effect, 100 is complete control): 65

## Cc1nn(-c2ccc(F)c(F)c2)nc1Oc1ccnc(C(F)(F)F)c1 [Compound 145]
[1]; [10]
  Plant response rating: Blackgrass: 20
[1]; [11]
  Plant response rating: Blackgrass: 25
[1]; [12]
  Plant response rating: Blackgrass: 30
[1]; 8 g ai/ha
  Plant response rating, Blackgrass: 5
[1]; 16 g ai/ha
  Plant response rating, Blackgrass: 20
[2]; [10]
  Plant response rating: Barley, Spring: 10
[2]; [11]
  Plant response rating: Barley, Spring: 15
[2]; [12]
  Plant response rating: Barley, Spring: 20
[2]; 8 g ai/ha
  Plant response rating, Barley, Spring: 5
[2]; 16 g ai/ha
  Plant response rating, Barley, Spring: 10
[3]; [10]
  Plant response rating: Russian Thistle: 95
[3]; [11]
  Plant response rating: Russian Thistle: 98
[3]; [12]
  Plant response rating: Russian Thistle: 100
[3]; 8 g ai/ha
  Plant response rating, Russian Thistle: 10
[3]; 16 g ai/ha
  Plant response rating, Russian Thistle: 40
[4]; 250 g ai/ha
  Plant response rating, Sedge, Umbrella (0 to 100 scale, 0 is no effect, 100 is complete control): 85
[5]; [14]
  Plant response rating, Foxtail, Green: 98
[5]; [15]
  Plant response rating, Foxtail, Green: 100
[5]; [16]
  Plant response rating, Foxtail, Green: 100
[5]; [17]
  Plant response rating, Foxtail, Green: 100
[5]; [18]
  Plant response rating, Foxtail, Green: 90
[5]; [19]
  Plant response rating, Foxtail, Green: 90
[5]; [20]
  Plant response rating, Foxtail, Green: 90
[5]; [21]
  Plant response rating, Foxtail, Green: 90
[6]; 250 g ai/ha
  Plant response rating, Ducksalad (0 to 100 scale, 0 is no effect, 100 is complete control): 60
[7]; [10]
  Plant response rating: Field Poppy: 100
[7]; [11]
  Plant response rating: Field Poppy: 100
[7]; [12]
  Plant response rating: Field Poppy: 100
[7]; 8 g ai/ha
  Plant response rating, Field Poppy: 25
[7]; 16 g ai/ha
  Plant response rating, Field Poppy: 75
[8]; [10]
  Plant response rating: Deadnettle: 70
[8]; [11]
  Plant response rating: Deadnettle: 90
[8]; [12]
  Plant response rating: Deadnettle: 100
[8]; 8 g ai/ha
  Plant response rating, Deadnettle: 0
[8]; 16 g ai/ha
  Plant response rating, Deadnettle: 50
[9]; [14]
  Plant response rating, Cupgrass, Woolly: 20
[9]; [15]
  Plant response rating, Cupgrass, Woolly: 25
[9]; [16]
  Plant response rating, Cupgrass, Woolly: 40
[9]; [17]
  Plant response rating, Cupgrass, Woolly: 75
[9]; [18]
  Plant response rating, Cupgrass, Woolly: 55
[9]; [19]
  Plant response rating, Cupgrass, Woolly: 90
[9]; [20]
  Plant response rating, Cupgrass, Woolly: 95
[9]; [21]
  Plant response rating, Cupgrass, Woolly: 98

## CCCc1nn(-c2ccc(F)cc2)nc1Cc1ccnc(C(F)(F)F)c1 [Compound 153]
[4]; 250 g ai/ha
  Plant response rating, Sedge, Umbrella (0 to 100 scale, 0 is no effect, 100 is complete control): 90
[6]; 250 g ai/ha
  Plant response rating, Ducksalad (0 to 100 scale, 0 is no effect, 100 is complete control): 90
